± gives the expanded uncertainty stated by the source.

Experimental findings from the NIST ThermoML archive (doi:10.1016/j.jct.2013.07.025) are described below.

The conditions of series [1]: Crystal; DTA.
The nature of series [2]: Molar enthalpy of transition or fusion. As to conditions: Crystal; DSC.

Turning to `CC(=O)[O-].C[N+](C)(C)CCO` [choline acetate], the Normal melting temperature in series [1] amounted to 67.60 ± 0.96 °C. In addition, in series [2], the “Molar enthalpy of transition or fusion” value stood at 3.94 ± 0.454 kcal/mol.

On to `C[N+](C)(C)CCOC(=O)CCC(=O)O.[Cl-]` [hydrogen choline chloride succinate], for which the Normal melting temperature in series [1] was determined as 147.40 ± 0.96 °C. Besides, the “Molar enthalpy of transition or fusion” value in series [2] was 8.87 ± 0.502 kcal/mol.
